The record followed here is paper PMC10482975 (Nature Communications, 2023).

Molecules are shown by their SMILES.

The target in test [1] is T1, M2 mAChR WT (Homo sapiens, UniProt P08172).
T1 construct: expressed in transfected cells
T1 sequence (P08172 1-466): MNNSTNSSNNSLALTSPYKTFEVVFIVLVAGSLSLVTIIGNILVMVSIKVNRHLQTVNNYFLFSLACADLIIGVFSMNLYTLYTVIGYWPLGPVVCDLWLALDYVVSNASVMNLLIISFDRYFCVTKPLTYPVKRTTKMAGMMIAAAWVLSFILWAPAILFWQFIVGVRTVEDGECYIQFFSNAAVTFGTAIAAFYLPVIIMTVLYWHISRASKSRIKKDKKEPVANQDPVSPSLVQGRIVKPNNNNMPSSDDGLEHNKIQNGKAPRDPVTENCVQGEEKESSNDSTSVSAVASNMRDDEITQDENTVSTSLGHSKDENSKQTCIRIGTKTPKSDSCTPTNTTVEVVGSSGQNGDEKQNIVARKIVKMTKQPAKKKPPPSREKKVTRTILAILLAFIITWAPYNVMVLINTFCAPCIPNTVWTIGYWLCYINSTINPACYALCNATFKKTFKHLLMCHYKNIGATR
Kind of test: [3H]-NMS radioligand dissociation binding, M2 mAChR WT. The settings on record: 10uM Atr + 10 μM Iperoxo. The method, then:
(§1) Flp-In Chinese hamster ovary (CHO) (Thermo Fisher Scientific) cells stably expressing mAChR WTs or mutant constructs were cultured in Dulbecco’s modified Eagle’s medium (DMEM, Invitrogen) containing 5% foetal bovine serum (FBS; ThermoTrace) and […] of hygromycin (Roche) in a humidified incubator (37 °C, 5% CO2). Upon reaching confluence, media was removed, cells were washed with phosphate buffered saline (PBS) and harvested from tissue culture flasks using versene (PBS with 0.2 g EDTA). Cells were then pelleted through centrifugation at 350 × g for three minutes followed by resuspension in DMEM + 5% FBS. Cells were then either plated for an assay or reseeded into a tissue culture flask.

The target in test [2] is T2, M4 mAChR WT (Homo sapiens, UniProt P08173).
T2 construct: expressed in transfected cells
T2 sequence (P08173 1-479): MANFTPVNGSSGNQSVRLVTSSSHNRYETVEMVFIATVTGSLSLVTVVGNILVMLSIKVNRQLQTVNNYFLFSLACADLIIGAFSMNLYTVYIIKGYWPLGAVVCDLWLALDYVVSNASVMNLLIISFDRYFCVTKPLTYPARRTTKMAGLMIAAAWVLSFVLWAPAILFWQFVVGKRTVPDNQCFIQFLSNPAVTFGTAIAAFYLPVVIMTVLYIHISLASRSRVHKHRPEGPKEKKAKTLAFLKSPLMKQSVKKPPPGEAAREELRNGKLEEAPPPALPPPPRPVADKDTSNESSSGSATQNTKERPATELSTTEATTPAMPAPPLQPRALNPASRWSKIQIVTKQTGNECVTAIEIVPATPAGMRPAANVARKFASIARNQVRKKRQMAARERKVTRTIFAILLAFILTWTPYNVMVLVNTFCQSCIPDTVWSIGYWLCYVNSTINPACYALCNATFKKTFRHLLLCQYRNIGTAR
Kind of test: [3H]-NMS radioligand dissociation binding, M4 mAChR WT. The settings on record: for [3H]-NMS binding remaining (0 min = 100), MEAN: M4 mAChR, 10uM Atr + 10 μM Iperoxo. How it is done: as §1

Test [3] concerns the target T3, M5 mAChR WT (Homo sapiens, UniProt P08912).
T3 construct: expressed in transfected cells
T3 sequence (P08912 1-532): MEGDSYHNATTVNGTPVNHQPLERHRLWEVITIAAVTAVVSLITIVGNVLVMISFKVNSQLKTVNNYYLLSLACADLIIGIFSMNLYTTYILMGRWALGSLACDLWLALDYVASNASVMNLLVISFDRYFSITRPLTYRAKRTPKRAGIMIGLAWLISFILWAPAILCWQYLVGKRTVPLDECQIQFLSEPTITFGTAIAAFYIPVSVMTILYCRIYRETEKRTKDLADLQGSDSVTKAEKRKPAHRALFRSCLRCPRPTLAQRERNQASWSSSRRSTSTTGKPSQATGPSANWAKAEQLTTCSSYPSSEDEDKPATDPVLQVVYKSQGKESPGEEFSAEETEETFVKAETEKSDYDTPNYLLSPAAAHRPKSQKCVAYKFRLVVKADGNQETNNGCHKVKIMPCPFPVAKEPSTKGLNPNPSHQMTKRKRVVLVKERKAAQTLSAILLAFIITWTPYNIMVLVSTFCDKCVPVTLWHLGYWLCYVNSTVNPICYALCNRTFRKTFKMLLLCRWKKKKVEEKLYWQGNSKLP
Put plainly: [3H]-NMS radioligand dissociation binding, M5 mAChR WT. The settings on record: 10uM Atr + 10 μM Iperoxo. The method, then: as §1

For test [4], the target named is T4, M3 mAChR WT (Homo sapiens, UniProt P20309).
T4 construct: expressed in transfected cells
Kind of test: [3H]-NMS radioligand dissociation binding, M3 mAChR WT. The settings on record: M3 mAChR, 10uM Atr + 10 μM Iperoxo. How it is done: as §1

T4 sequence (P20309 whole entry): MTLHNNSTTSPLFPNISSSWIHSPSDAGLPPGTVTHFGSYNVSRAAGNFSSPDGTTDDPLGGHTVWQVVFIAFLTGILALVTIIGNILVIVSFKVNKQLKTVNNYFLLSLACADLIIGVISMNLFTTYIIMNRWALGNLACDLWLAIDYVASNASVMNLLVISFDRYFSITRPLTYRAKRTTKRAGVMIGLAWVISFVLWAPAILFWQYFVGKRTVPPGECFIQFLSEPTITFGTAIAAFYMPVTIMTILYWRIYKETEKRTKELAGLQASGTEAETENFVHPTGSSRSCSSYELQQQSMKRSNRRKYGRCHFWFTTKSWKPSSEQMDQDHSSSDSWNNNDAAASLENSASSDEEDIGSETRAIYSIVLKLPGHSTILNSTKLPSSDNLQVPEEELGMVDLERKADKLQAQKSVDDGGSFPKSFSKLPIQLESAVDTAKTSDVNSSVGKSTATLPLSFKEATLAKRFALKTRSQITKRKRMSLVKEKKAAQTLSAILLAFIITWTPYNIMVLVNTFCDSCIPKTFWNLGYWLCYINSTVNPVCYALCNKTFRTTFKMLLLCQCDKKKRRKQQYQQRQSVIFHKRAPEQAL

As for `C[N+](C)(C)CC#CCOC1=NOCC1` [iperoxo], the “[3H]-NMS binding remaining (0 min = 100), MEAN” value (“[3H]-NMS binding remaining” for short) came out at 84.1199 in test [1] (5 min); 57.067 in test [1] (10 min); 42.2975 in test [1] (15 min); 18.0197 in test [1] (30 min); 11.4621 in test [1] (40 min); 5.852 in test [1] (60 min). The “[3H]-NMS binding remaining” value in test [1] (90 min) turned out to be 5.287; in test [2] (30 min), 88.7252; in test [2] (90 min), 52.6732; in test [2] (180 min), 31.8571; in test [2] (300 min), 17.3639; in test [3] (10 min), 98.7473. The “[3H]-NMS binding remaining” value turned out to be 104.707 in test [3] (15 min); 92.7543 in test [3] (30 min); 56.424 in test [3] (90 min); 46.6348 in test [3] (120 min); 27.5139 in test [3] (210 min); 100.4 in test [4] (10 min). Further, the “[3H]-NMS binding remaining” value is on record as 96.8554 in test [4] (15 min); 79.7803 in test [4] (30 min); 45.8424 in test [4] (90 min); 38.0708 in test [4] (120 min); 19.3493 in test [4] (210 min). Further, the “effect on [3H]-NMS dissociation (in words)” value in test [2] (wild-type M4 mAChR, increasing concentrations of xanomeline, saturating concentration of iperoxo) is reported as “had no effect”.
